# Test results reported in patent US20250115622A1, “Crystalline Forms Of An MCL-1 Inhibitor” (AMGEN INC., priority 2022, published 2025).
# Experiments:
# [1] = Moisture sorption (DVS) profile; type: physicochemical
# Experimental: Moisture Sorption: Moisture sorption data was collected using a VTI SGA 100 symmetrical vapor sorption analyzer. A sample size of approximately 5-10 mg was used in a platinum pan. Hygroscopicity was evaluated from 5 to 95% RH in increments of 5% RH. Data for adsorption and desorption cycles were collected. Equilibrium criteria were set at 0.001% weight change in 10 minutes with a maximum equilibration time of 180 minutes.
# [2] = Water content by KF; type: physicochemical
# Experimental: AMG 397 hydrate Form 7 was prepared by charging ˜4 g of AMG 397 with 1-propanol and then slurrying at 55° C. for 4 days. Isolated solids were subsequently dried under vacuum at 95-105° C. for 7 days. Water content by KF was 0.9% initially and 5.6% after equilibration at ambient conditions. DVS indicates variable water content to 0-12% based on environment.
# [3] = Thermodynamic stability of solid form; type: physicochemical
# [4] = Bioavailability compared between crystalline forms; type: in vivo; conditions: relative to AMG 397 anhydrous form 4
# [5] = Solubility compared between crystalline forms; type: physicochemical; conditions: relative to AMG 397 anhydrous form 4
smiles,measurement,setting,value
CO[C@]1(CN2CCN3CCCC[C@@H]3C2)/C=C/C[C@H](C)[C@@H](C)S(=O)(=O)NC(=O)c2ccc3c(c2)N(C[C@@H]2CC[C@H]21)C[C@@]1(CCCc2cc(Cl)ccc21)CO3 [hydrate form 2],moisture sorption weight gain,[1]; by 95% relative humidity,3%
same,moisture sorption weight gain,"[1]; by 95% relative humidity, listed as crystalline hydrate form 2 of AMG 397",~3.0%
CO[C@]1(CN2CCN3CCCC[C@@H]3C2)/C=C/C[C@H](C)[C@@H](C)S(=O)(=O)NC(=O)c2ccc3c(c2)N(C[C@@H]2CC[C@H]21)C[C@@]1(CCCc2cc(Cl)ccc21)CO3 [amorphous AMG 397],moisture sorption weight gain,[1]; by 95% relative humidity,~6.4%
same,moisture sorption weight gain,"[1]; by 95% relative humidity, listed as amorphous form of AMG 397",6.4%
CO[C@]1(CN2CCN3CCCC[C@@H]3C2)/C=C/C[C@H](C)[C@@H](C)S(=O)(=O)NC(=O)c2ccc3c(c2)N(C[C@@H]2CC[C@H]21)C[C@@]1(CCCc2cc(Cl)ccc21)CO3 [anhydrous form 6],moisture sorption weight gain,[1]; 50-95% relative humidity,10%
same,moisture sorption weight gain,[1]; between 0-50% relative humidity,0.5%
same,moisture sorption weight gain,[1]; by 95% relative humidity,10%
CO[C@]1(CN2CCN3CCCC[C@@H]3C2)/C=C/C[C@H](C)[C@@H](C)S(=O)(=O)NC(=O)c2ccc3c(c2)N(C[C@@H]2CC[C@H]21)C[C@@]1(CCCc2cc(Cl)ccc21)CO3 [hydrate form 7],variable water content (DVS),[1]; based on environment,0-12%
same,moisture sorption weight gain,[1]; by 95% relative humidity,0-12%
same,variable water content (DVS),[1]; moisture sorption profile,0-12 % wt
same,water content by KF,[2]; after equilibration at ambient conditions,5.6%
same,water content by KF,[2]; initially,0.9%
CO[C@]1(CN2CCN3CCCC[C@@H]3C2)/C=C/C[C@H](C)[C@@H](C)S(=O)(=O)NC(=O)c2ccc3c(c2)N(C[C@@H]2CC[C@H]21)C[C@@]1(CCCc2cc(Cl)ccc21)CO3 [hydrate form 3],moisture sorption weight gain,[1]; by 95% relative humidity,1.9%
same,moisture sorption weight gain,"[1]; by 95% relative humidity, listed as crystalline hydrate form 3 of AMG 397",~1.9%
CO[C@]1(CN2CCN3CCCC[C@@H]3C2)/C=C/C[C@H](C)[C@@H](C)S(=O)(=O)NC(=O)c2ccc3c(c2)N(C[C@@H]2CC[C@H]21)C[C@@]1(CCCc2cc(Cl)ccc21)CO3 [anhydrous form 4],thermodynamic stability of form,[3],thermodynamically stable form
same,moisture sorption weight gain,[1]; by 95% relative humidity,4.5%
same,moisture sorption weight gain,"[1]; by 95% relative humidity, listed as crystalline anhydrous form 4 of AMG 397",~4.5%
CO[C@]1(CN2CCN3CCCC[C@@H]3C2)/C=C/C[C@H](C)[C@@H](C)S(=O)(=O)NC(=O)c2ccc3c(c2)N(C[C@@H]2CC[C@H]21)C[C@@]1(CCCc2cc(Cl)ccc21)CO3 [hydrate form 1],moisture sorption weight gain,[1]; by 95% relative humidity,3.3%
same,moisture sorption weight gain,"[1]; by 95% relative humidity, listed as crystalline hydrate form 1 of AMG 397",~3.3%
same,bioavailability,[4],higher
same,solubility,[5],higher
